Assay in all cases: Kinase selectivity, scanMAX Kinase assay panel (DiscoverX), % control at 1 uM
Holding throughout (assay type): binding

Assay [1] concerns the target T1, scanMAX Kinase assay panel (Homo sapiens, UniProt P25098).
T1 construct: purchased DiscoverX
T1 sequence (P25098 1-689): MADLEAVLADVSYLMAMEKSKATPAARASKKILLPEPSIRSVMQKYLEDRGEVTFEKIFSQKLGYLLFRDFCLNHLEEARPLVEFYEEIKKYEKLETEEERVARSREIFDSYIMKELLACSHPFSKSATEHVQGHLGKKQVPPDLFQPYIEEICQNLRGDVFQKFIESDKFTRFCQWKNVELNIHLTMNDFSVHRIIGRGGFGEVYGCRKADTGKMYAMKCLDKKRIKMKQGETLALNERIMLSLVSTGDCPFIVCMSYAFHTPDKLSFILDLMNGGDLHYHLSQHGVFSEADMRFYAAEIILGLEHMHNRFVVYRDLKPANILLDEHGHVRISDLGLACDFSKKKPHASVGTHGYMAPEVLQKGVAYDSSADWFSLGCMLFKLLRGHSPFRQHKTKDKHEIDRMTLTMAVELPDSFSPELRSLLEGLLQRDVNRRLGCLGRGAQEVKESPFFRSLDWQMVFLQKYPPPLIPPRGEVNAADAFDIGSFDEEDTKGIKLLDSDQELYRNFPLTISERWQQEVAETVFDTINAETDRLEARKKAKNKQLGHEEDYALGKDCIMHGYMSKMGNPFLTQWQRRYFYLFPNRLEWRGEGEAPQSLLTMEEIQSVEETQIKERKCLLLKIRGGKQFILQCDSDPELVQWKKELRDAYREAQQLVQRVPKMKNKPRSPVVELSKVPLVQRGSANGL
Conditions: GRK2; 1 uM; read-out: Percent Control (%). In a few lines: (§1)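 Single-point screen at 1 uM compound in DMSO. Lower % control means stronger inhibition, with the cutoff for activity set at <35%.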

The target in assay [2] is T2, scanMAX Kinase assay panel (Homo sapiens, UniProt P42680).
T2 construct: purchased DiscoverX
T2 sequence (P42680 1-631): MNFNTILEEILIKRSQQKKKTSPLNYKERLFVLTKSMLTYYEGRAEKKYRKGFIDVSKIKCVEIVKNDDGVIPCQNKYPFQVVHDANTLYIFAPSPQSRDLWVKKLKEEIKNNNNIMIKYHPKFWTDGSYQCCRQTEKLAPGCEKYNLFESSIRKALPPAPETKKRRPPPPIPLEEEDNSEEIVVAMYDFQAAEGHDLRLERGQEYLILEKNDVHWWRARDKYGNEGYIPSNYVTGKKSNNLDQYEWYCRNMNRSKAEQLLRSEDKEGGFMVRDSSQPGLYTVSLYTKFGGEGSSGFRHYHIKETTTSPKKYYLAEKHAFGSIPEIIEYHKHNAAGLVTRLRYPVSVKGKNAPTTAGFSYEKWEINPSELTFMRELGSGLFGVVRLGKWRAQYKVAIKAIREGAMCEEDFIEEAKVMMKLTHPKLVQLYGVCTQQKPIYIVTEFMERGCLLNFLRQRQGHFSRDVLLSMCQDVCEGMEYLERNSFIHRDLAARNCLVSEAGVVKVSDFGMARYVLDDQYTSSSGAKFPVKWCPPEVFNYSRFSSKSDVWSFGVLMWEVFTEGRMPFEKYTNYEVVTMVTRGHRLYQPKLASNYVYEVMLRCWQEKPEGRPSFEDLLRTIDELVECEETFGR
Conditions: TEC; 1 uM; read-out: Percent Control (%). In a few lines:
as §1

Assay [3] has as its target T3, scanMAX Kinase assay panel (Homo sapiens, UniProt P43403).
T3 construct: purchased DiscoverX
T3 sequence (P43403 1-619): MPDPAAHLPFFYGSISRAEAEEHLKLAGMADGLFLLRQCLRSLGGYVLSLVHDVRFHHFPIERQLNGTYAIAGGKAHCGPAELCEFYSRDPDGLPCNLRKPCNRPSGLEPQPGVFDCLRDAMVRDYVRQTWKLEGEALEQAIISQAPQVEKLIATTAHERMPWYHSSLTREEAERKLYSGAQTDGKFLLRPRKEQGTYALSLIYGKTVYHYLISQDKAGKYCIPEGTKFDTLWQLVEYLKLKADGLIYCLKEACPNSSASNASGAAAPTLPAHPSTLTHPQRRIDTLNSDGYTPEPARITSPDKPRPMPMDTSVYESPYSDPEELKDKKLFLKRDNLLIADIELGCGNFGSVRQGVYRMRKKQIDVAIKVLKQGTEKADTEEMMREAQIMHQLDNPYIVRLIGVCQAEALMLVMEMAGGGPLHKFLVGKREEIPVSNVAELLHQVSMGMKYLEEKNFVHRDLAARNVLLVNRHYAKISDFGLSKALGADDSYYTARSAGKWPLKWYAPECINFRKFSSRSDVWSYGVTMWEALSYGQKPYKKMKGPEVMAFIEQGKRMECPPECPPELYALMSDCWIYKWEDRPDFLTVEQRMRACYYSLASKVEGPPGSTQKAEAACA
Conditions: ZAP70; 1 uM; read-out: Percent Control (%). In a few lines:
as §1

Assay [4] addresses T4, scanMAX Kinase assay panel (Homo sapiens, UniProt P46734).
T4 construct: purchased DiscoverX
T4 sequence (P46734 1-347): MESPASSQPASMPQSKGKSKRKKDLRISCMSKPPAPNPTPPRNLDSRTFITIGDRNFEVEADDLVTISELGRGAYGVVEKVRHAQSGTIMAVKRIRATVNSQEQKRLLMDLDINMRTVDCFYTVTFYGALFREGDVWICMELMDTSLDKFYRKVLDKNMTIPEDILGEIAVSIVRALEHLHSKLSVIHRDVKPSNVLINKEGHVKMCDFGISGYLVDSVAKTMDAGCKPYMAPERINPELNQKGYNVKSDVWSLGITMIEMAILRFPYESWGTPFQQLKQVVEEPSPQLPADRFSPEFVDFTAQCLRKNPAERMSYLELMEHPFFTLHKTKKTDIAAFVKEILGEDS
The note with it: MEK3; 1 uM; read-out: Percent Control (%). The essentials: as §1

Molecules are shown by their SMILES.

On to `Cc1ccc(C(=O)Nc2ccc(CN3CCN(C)CC3)c(C(F)(F)F)c2)cc1C#Cc1cnc2c(Nc3cnn(C)c3)cccn12` [Example 1, 4-methyl-3-((8-((1-methyl-1H-pyrazol-4-yl)amino)imidazo[1,2-a]pyridin-3-yl)ethynyl)-N-(4-((4-methylpiperazin-1-yl)methyl)-3-(trifluoromethyl)phenyl)benzamide], for which the remaining binding at 1 µM in assay [1] is 84%; in assay [2] it was 0%; in assay [3], 26%; in assay [4], 81%.
`Cc1ccc(NC(=O)C2(C(=O)Nc3ccc(F)cc3)CC2)cc1C#Cc1cnc2c(Nc3cnn(C(C)C)c3)cccn12` [Example 78]: the remaining binding at 1 µM in assay [1] is 96%; in assay [2], 100%; in assay [3] it was 96%; in assay [4], 96%.
In the case of `Cc1cn(-c2cc(NC(=O)c3ccc(C)c(C#Cc4cnc5c(Nc6cnn(C)c6)cccn45)c3)cc(C(F)(F)F)c2)cn1` [Example 12, 4-methyl-N-(3-(4-methyl-1H-imidazol-1-yl)-5-(trifluoromethyl)phenyl)-3-((8-((1-methyl-1H-pyrazol-4-yl)amino)imidazo[1,2-a]pyridin-3-yl)ethynyl)benzamide], the remaining binding at 1 µM in assay [1] was 100%; in assay [2], 8%; in assay [3], 100%; in assay [4], 100%.

For the origin of these results see patent publication US10870647B2, “Imidazopyridine derivative, method for preparing same, and pharmaceutical composition containing same as active ingredient for preventing or treating cancer” (DAEGU-GYEONGBUK MEDICAL INNOVATION FOUNDATION, priority 2016, dated 2020).
